Assay results: patent publication US20150297718A1, “ION[…] OF CATIONIC PRODRUGS FOR TOPICAL TREATMENT OF MUSCU[…] SKIN DISEASES” (priority 2014, published 2015)
Where a name gives a salt, the structure may show the parent alone. Read-outs that look alike come from different tables or passages of the source.

Key:
[1] = Bioconversion of ketoprofen prodrugs in fresh human plasma
[2] = Iontophoresis delivery into hairless rat knee joint: tissue and plasma drug concentrations; assay type: in vivo
Experimental: Hairless rats were anaesthetized with isoflurane. A rubber disk shape applicator with a sponge that can hold 0.5 ml of the drug solution was used and a button Ag/AgCl electrode was used as current driving electrode. The delivery area is about 1.2 cm^2. After drug solution was loaded into the sponge, the applicator was placed on the knee cap skin and applied an electric current at 0.4 mA/cm^2 for 20 min. A return electrode was attached to the upper tail of the rat. After that, the skin was cleaned thoroughly with wet Kim wipes. The tissues (skin, muscle and joint) at the application site knee and also the contralateral site knee were collected at 30 min, 2 hr, 4 hr or 6 hr from the start of iontophoresis delivery. Three animals were used for each time point. Blood samples were also collected at appropriate time points. The tissue and blood samples were stored at −80° C. until further processing.

[3] = Passive penetration across human epidermis skin in side-by-side diffusion cells; conditions: no electric current, 6 hours
Text: The efficiency in anode iontophoresis delivery of KCE and that in cathode iontophoresis delivery of ketoprofen were compared with an in-vitro side-by-side diffusion cell study. […] The human cadaver epidermis skin was sandwiched between the two half cells with stratum corneum face the donor chamber. […] Phosphate buffer solution (0.15 M at pH 7.4) was placed in the receiver chamber. […]

[4] = In-vitro side-by-side diffusion cell study, iontophoresis across human epidermis skin; assay type: in vitro ADME
Text: The efficiency in anode iontophoresis delivery of KCE and that in cathode iontophoresis delivery of ketoprofen were compared with an in-vitro side-by-side diffusion cell study. […] The human cadaver epidermis skin was sandwiched between the two half cells with stratum corneum face the donor chamber. For anode iontophoresis of KCE, KCE chloride salt solution (26.6 μmol/ml) was placed in the donor cell. For cathode iontophoresis of ketoprofen (Kt), […] solution (26.6 μmol/ml) was placed in the donor cell. Phosphate buffer solution (0.15 M at pH 7.4) was placed in the receiver chamber. Constant current 0.2 mA was applied to the diffusion cell. The amount of drug penetrated through the skin was collected in the receive chamber and analyzed with a HPLC. The anode iontophoresis of the cationic prodrug KCE delivered 4 times more drug across the skin than that delivered by the cathode iontophoresis of ketoprofen (see FIG. 4A) from the in-vitro study.
Anode iontophoresis of the cationic ketoprofen prodrug KCE (26.6 μmol/ml) with the presence of phenylephrine (PE) (4.9 μmol/ml) in solution was evaluated with an in-vitro diffusion cell study across a human epidermis skin.

[5] = test system: knee arthritis pain model (monosodium iodoacetate); test: MIA knee osteoarthritis rat model treated with iontophoresis; assay type: in vivo; conditions: 0.4 mA/cm^2 for 20 min on days 1, 2, 3 after MIA; versus iontophoresis of NaCl
Experimental: A knee arthritis pain model was established by injection of 50 μl of 60 mg/ml monosodium iodoacetate (MIA) into the left hind knee joint of 12 hairless rats, and they were divided into three groups. The knee diameters of both hind knees were measured. The difference in knee diameters between the left knee and right knee was used as the indicator of the swelling (or inflammation) of the left knee. In addition, the weight bearing of each hind limb was also measured with a Linton incapacitance tester. The percentage of the weight bearing by the left leg was used as an indicator of the pain level in the knee. At 1 day, 2 days, 3 days after the injection of MIA, the left knee of the rats in group 1 was treated with iontophoresis of NaCl to the left hind knee at 0.4 mA/cm^2 for 20 min, group 2 treated with iontophoresis of Kt to the left hind knee at 0.4 mA/cm^2 for 20 min, and group 3 treated with iontophoresis of KCE to the left hind knee at 0.4 mA/cm^2 for 20 min. The knee diameter and weight bearing were measured at day 0 before the MIA injection, and also at day 1, 2, and 3 after the MIA injection but before the iontophoresis treatment. They were also measured at day 4, 6, and 10 after the MIA injection.

[6] = test system: melanoma cell (A375); test: In vitro cell viability assay on melanoma cell growth; assay type: cell-based; conditions: read-out: 50% inhibition concentration (IC50) on melanoma cell (A375) growth
Text: The drug concentrations in the skin after the iontophoresis delivery of those prodrugs or their parent drug ketoprofen from different iontophoresis conditions are summarized in Table 2. The high drug concentration in the skin can be used for treatment of skin diseases including skin cancers such as melanoma. […] The ketoprofen concentrations in the skin from the iontophoresis delivery was not higher than its IC50 against the melanoma cell growth, but the KCE and KME concentrations in the skin from the anode iontophoresis delivery were higher than their IC50 against the melanoma cell growth. Thus, the anode iontophoresis of the prodrugs can provide high drug accumulation in the skin, and such high drug accumulation in the skin can be used for skin disease treatment.

[7] = Bioconversion of ketoprofen prodrugs in fresh rat plasma
[8] = In vivo rat study of iontophoresis delivery on dorsal back skin: tissue and plasma drug concentrations; conditions: for Drug concentration in the skin: delivered drug (prodrug or ketoprofen); for Concentration of ketoprofen converted from the prodrug in the skin: number in bracket
Experimental: (§1) The anode iontophoresis of ketoprofen cationic prodrugs KCE, KME and cathode iontophoresis of ketoprofen were compared with an in vivo rat study for evaluation of drug penetration into deep tissues. […] A prodrug solution was loaded in the cell. A constant current of 0.4 mA/cm^2 for iontophoresis was applied for 6 hours. At the end of the iontophoresis delivery, the rats were euthanized. The skin of the application site (under the glass cell) was washed with water, tape stripped once to remove residue drug on skin, and then dissected with a biopsy punch for the tissue layers: epidermis and dermis layer (depth 0-3 mm), subcutaneous tissue (fat pad) (3-4 mm), shallow muscle layer (4-6 mm), and deep muscle (6-10 mm). The tissues from the contralateral site were dissected with the same method. In addition, the plasma blood samples were obtained right before the experiment (time 0) and each hour during the experiment. The drug concentrations in the tissue and plasma samples were analyzed with a HPLC.
as §1, with “cationic prodrugs and cathode” for “cationic prodrugs KCE, KME and cathode”, “ketoprofen were also compared with” for “ketoprofen were compared with”, “rat study at 0.4 mA/cm^2 for a shorter duration of 2 hours for evaluation” for “rat study for evaluation”, “applied for 2 hours. At” for “applied for 6 hours. At”
as §1, with “cationic prodrugs and cathode” for “cationic prodrugs KCE, KME and cathode”, “ketoprofen were also compared with” for “ketoprofen were compared with”, “rat study at 0.057 mA/cm^2 for a duration of 6 hours for evaluation” for “rat study for evaluation”, “current of 0.057 mA/cm^2 for” for “current of 0.4 mA/cm^2 for”, “with a HPLC” for “with a HPLC.”
KPE is a prodrug of ketoprofen but with two methyl groups on the nitrogen atom, instead of three methyl groups on the nitrogen atom like KCE and KME. KPE can be presented as a hydrochloride salt. […] Anode iontophoresis delivery of KPE in this aqueous solution at 0.4 mA/cm^2 for a shorter duration of 2 hour was also conducted with the in vivo rat study.

[9] = iontophoresis 0.057 mA/cm^2 for 6 hrs
[10] = iontophoresis 0.4 mA/cm^2 for 2 hrs
[11] = iontophoresis 0.4 mA/cm^2 for 6 hrs

SMILES	Knee swelling (knee diameter difference left vs right) [5]	Weight bearing of the left leg (pain indicator) [5]	Tissue drug concentrations / direct penetration at the application site ([8]; 0.057 mA/cm^2 for 6 hours)	Tissue drug concentrations / direct penetration at the application site ([8]; 0.4 mA/cm^2 for 2 hours)	Plasma drug concentration ([8]; 0.4 mA/cm^2 for 6 hours)	Tissue drug concentrations / direct penetration at the application site ([8]; 0.4 mA/cm^2 for 6 hours)	Drug concentration in the skin [8, 9]	Drug concentration in the skin [8, 10]	Drug concentration in the skin [8, 11]	also measured
CC(C(=O)OCC[N+](C)(C)C)c1cccc(C(=O)c2ccccc2)c1 (stereo not drawn) [KCE, Ketoprofen choline ester chloride salt]	significant reduction of the knee swelling	significant improvement in the weight bearing of the left leg	direct penetration into deeper tissues that is up into the shallow muscles	direct penetration into deeper tissues up into the deep muscles	much lower than that from the iontophoresis of Kt	much higher concentration in the drug application site than the Kt concentration in the contralateral site	887 μmol per kilogram of skin	6719 μmol per kilogram of skin	25869 μmol per kilogram of skin	Bioconversion (half life) in human plasma [1]: <2 min; Drug concentrations in the knee joint and surrounding muscle tissues ([2]; 0.4 mA/cm^2 for 20 min, 0.5-hour and 2-hour time points): higher drug concentrations in the knee joint and also surrounding muscle tissues than those from the cathode iontophoresis of Kt; Passive penetration across human epidermis skin [3]: Almost no KCE chloride was penetrated across the human skin in 6 hours; Drug delivered across the skin relative to cathode iontophoresis of ketoprofen ([4]; 0.2 mA constant current, 26.6 μmol/ml donor, anode iontophoresis): 4 times; Amount penetrated across the skin by anode iontophoresis, KCE alone versus KCE with phenylephrine ([4]; KCE 26.6 μmol/ml, PE 4.9 μmol/ml, 0.2 mA): slightly higher than that with the PE in the solution; IC50 ([6]; A375 cells): 2650 µM; Bioconversion (half life) in rat plasma [7]: 8.6 min; Plasma and contralateral tissue drug concentration ([8]; 0.057 mA/cm^2 for 6 hours): initial lower plasma concentration, but reached a plasma concentration similar to that from iontophoresis of Kt at 6 hours; Plasma drug concentration ([8]; 0.4 mA/cm^2 for 2 hours): lower than that from iontophoresis of ketoprofen; Drug in tissues at the contralateral site ([8]; 0.4 mA/cm^2 for 6 hours): No prodrug was detected in the contralateral tissues; Concentration of ketoprofen converted from the prodrug in the skin [8, 9]: 905 μmol per kilogram of skin; Concentration of ketoprofen converted from the prodrug in the skin [8, 10]: 2996 μmol per kilogram of skin; Concentration of ketoprofen converted from the prodrug in the skin [8, 11]: 13527 μmol per kilogram of skin
CC(C(=O)O)c1cccc(C(=O)c2ccccc2)c1 (stereo not drawn) [Ketoprofen, reference compound]	not as effective	not as effective	only achieved skin deep penetration with no direct penetration into subcutaneous, shallow muscle or deep muscle tissue	only achieved skin deep penetration with no direct penetration into subcutaneous, shallow muscle or deep muscle tissue	high	can only penetrate skin deep	59 μmol per kilogram of skin	378 μmol per kilogram of skin	417 μmol per kilogram of skin	Plasma Kt concentration ([2]; 0.4 mA/cm^2 for 20 min on knee): high initial plasma Kt concentration than iontophoresis of the cationic prodrug KCE; IC50 ([6]; Homo sapiens, A-375, A375 cells): 1400 µM
